According to patent publication US10017501B2, “Benzimidazole derivatives as bromodomain inhibitors” (Gilead Sciences, Inc., priority 2013, dated 2018):
Like-named read-outs stand apart in the source and are kept apart here.

Assays:
[1] = test system: MT-4 cells; assay: MT-4 proliferation assay; assay type: cell-based, human
Procedure: MT-4 Proliferation Assay:
Compounds were tested in a standardized high-throughput 384-well assay format. Each compound was serially diluted 3-fold in 100% DMSO in polypropylene 384-well plates using a Biomek FX Workstation, and 0.4 μL compound added to an assay plate containing 40 μL RPMI media. Compounds were arranged in a horizontal pattern, with 10 concentrations per compound, and 8 compounds added per plate. Due to low DMSO tolerability, the final DMSO concentration never exceeded 0.5% (v/v). Each assay plate contained 10 μM Puromycin and 0.5% DMSO in RPMI-1640 as positive and negative controls respectively. MT-4 cells (HTLV-1 transformed, human T lymphoblastoid cells, NIH Aids Reagent program) were added in volumes of 35 μL per well and 2,000 cells per well using a Biotek uFlow Workstation (Biotek, Winooski, Vt.), and the plates subsequently incubated for 5 days at 37° C. in an incubator set at 5% CO2 and 90% humidity.
After 5 days, 22 μL Cell Titer Glo (Promega) was added to the assay plates with a Biotek uFlow Workstation. Plates were subsequently placed on a Perkin Elmer Envision Plate Reader for 5 minutes before the luminescence signal was read.

[2] = test system: c-Myc produced in MM.1S cells; assay: c-Myc down regulation assay (MSD); assay type: cell-based; details: 24 hrs
Procedure: (§1) c-Myc Down Regulation and MM.1S Viability Assays:
An enzyme linked immunosorbent assay using the Meso Scale Diagnostic (MSD) technology was used to detect levels of c-Myc produced in MM.1S cells (ATCC). MM.1S cells were cultured in RPMI-1640 media (Corning), supplemented with 10% FBS (Hyclone), 1% penicillin-streptomycin (Cellgro), 2-mercaptoethanol (Gibco) and seeded onto 384-tissue culture treated filter binding plates (Millipore) at a density of 40K cells/well containing titrations of small molecule inhibitors or DMSO (0.4%) in a volume of […] of media. After an incubation time of 24 hrs, cells were lysed (1× lysis buffer (Thermo) supplemented with protease and phosophatase inhibitor cocktail (Thermo)) and the plates centrifuged (1000 rpm, 1 min) to capture c-Myc on MSD plates coated with a monoclonal c-Myc antibody (Origene). Assay wells were washed (3× Invitrogen wash buffer) and probed with a polyclonal c-Myc antibody (Abcam) and MSD detection antibody solution in order to detect levels of c-Myc on the MSD platform. c-Myc capture was reported in pg/ml based on a standard curve using recombinant c-Myc protein (Prosci). EC50 values were calculated from the fit of the dose-response curves to a four-parameter equation. All EC50 values represent geometric mean values of a minimum of four determinations. These assays generally produced results within 3-fold of the reported mean.

[3] = test system: MM.1S cells; assay: MM.1S viability assay (CellTiter Glo); assay type: cell-based; details: 72 hr, read-out: MM.1S Cell viability (EC50)
Procedure: as §1
For cell viability in the MM.1S cell line, cells were seeded onto 384-tissue culture treated plates (Greiner) at a density of 60K cells/well containing titrations of small molecule inhibitors or DMSO (0.2%). After 72 hr incubation cells were analyzed for cell viability by addition of CellTiter Glo (Promega) to the assay plates. After 15 min incubation at room temperature the signal from the viable cells was analyzed on an Envision plate reader (Perkin Elmer). EC50 values were calculated from the fit of the dose-response curves to a four-parameter equation. All EC50 values represent geometric mean values of a minimum of four determinations. These assays generally produced results within 3-fold of the reported mean.

[4] = Homo sapiens, MT4, 120 h, Table 2, 5 days, Cell Titer Glo, read-out: MT4 Assay (EC50)

Row | EC50 ([2]; Homo sapiens, MM1.S) [µM] | EC50 ([3]; Homo sapiens, MM1.S) [µM] | Compound | EC50 ([1]; Homo sapiens, MT4, 120 h, read-out: MT4 Assay (EC50, nM)) [nM] | EC50 [1, 4] [nM] | EC50 ([1]; Table 2, 5 days, Cell Titer Glo, read-out: MT4 Assay (EC50)) [nM] | EC50 [2] [µM] | EC50 [3] [µM]
1 | 0.0331 | 0.0475 | Cc1noc(C)c1-c1cc(C(O)(c2ccccn2)c2ncccn2)c2nc(C3CC3)[nH]c2c1 (single isomer, unassigned) [Compound 1020-239, (2-cyclopropyl-6-(3,5-dimethylisoxazol-4-yl)-1H-benzo[d]imidazol-4-yl)(pyridin-2-yl)(pyrimidin-2-yl)methanol] |  | 14 |  |  | 
2 |  |  | Cc1noc(C)c1-c1cc(C(O)(c2cccnn2)C2CCCO2)c2nc(C3CC3)[nH]c2c1 (single isomer, unassigned) [Compound 1020-289, (2-cyclopropyl-6-(3,5-dimethylisoxazol-4-yl)-1H-benzo[d]imidazol-4-yl)(pyridazin-3-yl)(tetrahydrofuran-2-yl)methanol] |  |  | 4.2 | 0.0057 | 0.0178
3 | 0.0153 | 0.0169 | Cc1noc(C)c1-c1cc(C(O)(c2cccnn2)C2CCC(C)(C)O2)c2nc(C3CC3)[nH]c2c1 (single isomer, unassigned) [Compound 1020-298, (2-cyclopropyl-6-(3,5-dimethylisoxazol-4-yl)-1H-benzo[d]imidazol-4-yl)(5,5-dimethyltetrahydrofuran-2-yl)(pyridazin-3-yl)methanol] |  | 5.6 |  |  | 
4 | 0.0373 | 0.0728 | Cc1noc(C)c1-c1cc(C(O)(c2nccs2)c2nccs2)c2nc(C3CC3)[nH]c2c1 [Compound 1020-103, (2-cyclopropyl-6-(3,5-dimethylisoxazol-4-yl)-1H-benzo[d]imidazol-4-yl)di(thiazol-2-yl)methanol] |  | 10 |  |  | 
5 | 0.0515 | 0.0555 | Cc1noc(C)c1-c1cc(C(O)(c2ccccn2)c2ccccn2)c2nc(C3CC3)[nH]c2c1 [Compound 1020-104, (2-cyclopropyl-6-(3,5-dimethylisoxazol-4-yl)-1H-benzo[d]imidazol-4-yl)di(pyridin-2-yl)methanol] |  | 12.6 |  |  | 
6 | 0.0567 | 0.145 | Cc1noc(C)c1-c1cc(C(O)(c2ccccc2)c2cccnc2)c2nc(C3CC3)[nH]c2c1 (stereo not drawn) [Compound 1020-112, (2-cyclopropyl-6-(3,5-dimethylisoxazol-4-yl)-1H-benzo[d]imidazol-4-yl)(phenyl)(pyridin-3-yl)methanol] |  | 18.2 |  |  | 
7 | 0.0631 | 0.169 | Cc1noc(C)c1-c1cc(C(O)(c2ccccc2)c2ccccn2)c2nc(C3CC3)[nH]c2c1 (stereo not drawn) [Compound 1020-113, (2-cyclopropyl-6-(3,5-dimethylisoxazol-4-yl)-1H-benzo[d]imidazol-4-yl)(phenyl)(pyridin-2-yl)methanol] |  | 19.9 |  |  | 
8 | 0.104 | 0.084 | Cc1noc(C)c1-c1cc(C(O)(c2ccccn2)c2ccccn2)c2nc(C3CC3)[nH]c2c1F [Compound 1020-224, (2-cyclopropyl-6-(3,5-dimethylisoxazol-4-yl)-7-fluoro-1H-benzo[d]imidazol-4-yl)di(pyridin-2-yl)methanol] |  | 20.5 |  |  | 
9 | 0.0557 | 0.0284 | Cc1noc(C)c1-c1cc(C(O)(c2ncccn2)c2ccc(F)cc2F)c2nc(C3CC3)[nH]c2c1 (stereo not drawn) [Compound 1020-257, (2-Cyclopropyl-6-(3,5-dimethylisoxazol-4-yl)-1H-benzo[d]imidazol-4-yl)(2,4-difluorophenyl)(pyrimidin-2-yl)methanol] |  | 14.2 |  |  | 

Row | Compound | EC50 ([2]; Homo sapiens, MM1.S) [µM] | EC50 ([3]; Homo sapiens, MM1.S) [µM] | EC50 ([1]; Homo sapiens, MT4, 120 h, read-out: MT4 Assay (EC50, nM)) [nM] | EC50 [1, 4] [nM] | EC50 ([1]; Table 2, 5 days, Cell Titer Glo, read-out: MT4 Assay (EC50)) [nM] | EC50 [2] [µM] | EC50 [3] [µM]
10 | Cc1cccc(C(O)(c2cc(-c3c(C)noc3C)cc3[nH]c(C4CC4)nc23)C2CCCO2)n1 (racemic) [Compound 1020-114, (2-cyclopropyl-6-(3,5-dimethylisoxazol-4-yl)-1H-benzo[d]imidazol-4-yl)(6-methylpyridin-2-yl)(tetrahydrofuran-2-yl)methanol] | 0.0048 | 0.0212 | 2.5 |  |  |  | 
